In patent US9238656B2, “Imidazo[4,5-b]pyridine derivatives as ALK and JAK modulators for the treatment of proliferative disorders” (priority 2012, dated 2016):
Counter-ions that a name gives are not always drawn. Like-named read-outs stand apart in the source and are kept apart here.

Legend:
[1] = target: baculovirus-expressed JAK2 kinase (Homo sapiens, UniProt O60674); assay: biochemical; settings: read-out: JAK2 Potency
Description: Compounds were tested for their ability to inhibit the kinase activity of baculovirus-expressed JAK2 kinase using the time-resolved fluorescence (TRF) detection system. […] The plates were coated with 100 μL/well of 10 μg/mL Neutravidin (Pierce #31000, Rockford, Ill.) in TBS at 37° C. for 2 h, followed by 100 μL/well of 1 μg/mL 15-mer peptide substrate (biotinyl-amino-hexanoyl-[…]-amide, Infinity Biotech Research and Resource, Aston, Pa.) at 37° C. for 1 h. […] Enzyme (15 ng/mL JAK2) was added and the reaction was allowed to proceed at room temperature for 20 min. […] Inhibition data were analyzed using ActivityBase (IDBS, Guilford, UK). IC50 values were calculated by plotting percent inhibition versus log10 of the concentration of compound and fitting to the nonlinear regression sigmoidal dose-response (variable slope) equation in XLFit (IDBS, Guilford, UK).

[2] = target: baculovirus-expressed ALK (Homo sapiens, UniProt Q9UM73); assay: ALK kinase inhibition, TRF/ELISA; type: biochemical; settings: read-out: ALK Potency
Chain of baculovirus-expressed ALK (Q9UM73 19-1620): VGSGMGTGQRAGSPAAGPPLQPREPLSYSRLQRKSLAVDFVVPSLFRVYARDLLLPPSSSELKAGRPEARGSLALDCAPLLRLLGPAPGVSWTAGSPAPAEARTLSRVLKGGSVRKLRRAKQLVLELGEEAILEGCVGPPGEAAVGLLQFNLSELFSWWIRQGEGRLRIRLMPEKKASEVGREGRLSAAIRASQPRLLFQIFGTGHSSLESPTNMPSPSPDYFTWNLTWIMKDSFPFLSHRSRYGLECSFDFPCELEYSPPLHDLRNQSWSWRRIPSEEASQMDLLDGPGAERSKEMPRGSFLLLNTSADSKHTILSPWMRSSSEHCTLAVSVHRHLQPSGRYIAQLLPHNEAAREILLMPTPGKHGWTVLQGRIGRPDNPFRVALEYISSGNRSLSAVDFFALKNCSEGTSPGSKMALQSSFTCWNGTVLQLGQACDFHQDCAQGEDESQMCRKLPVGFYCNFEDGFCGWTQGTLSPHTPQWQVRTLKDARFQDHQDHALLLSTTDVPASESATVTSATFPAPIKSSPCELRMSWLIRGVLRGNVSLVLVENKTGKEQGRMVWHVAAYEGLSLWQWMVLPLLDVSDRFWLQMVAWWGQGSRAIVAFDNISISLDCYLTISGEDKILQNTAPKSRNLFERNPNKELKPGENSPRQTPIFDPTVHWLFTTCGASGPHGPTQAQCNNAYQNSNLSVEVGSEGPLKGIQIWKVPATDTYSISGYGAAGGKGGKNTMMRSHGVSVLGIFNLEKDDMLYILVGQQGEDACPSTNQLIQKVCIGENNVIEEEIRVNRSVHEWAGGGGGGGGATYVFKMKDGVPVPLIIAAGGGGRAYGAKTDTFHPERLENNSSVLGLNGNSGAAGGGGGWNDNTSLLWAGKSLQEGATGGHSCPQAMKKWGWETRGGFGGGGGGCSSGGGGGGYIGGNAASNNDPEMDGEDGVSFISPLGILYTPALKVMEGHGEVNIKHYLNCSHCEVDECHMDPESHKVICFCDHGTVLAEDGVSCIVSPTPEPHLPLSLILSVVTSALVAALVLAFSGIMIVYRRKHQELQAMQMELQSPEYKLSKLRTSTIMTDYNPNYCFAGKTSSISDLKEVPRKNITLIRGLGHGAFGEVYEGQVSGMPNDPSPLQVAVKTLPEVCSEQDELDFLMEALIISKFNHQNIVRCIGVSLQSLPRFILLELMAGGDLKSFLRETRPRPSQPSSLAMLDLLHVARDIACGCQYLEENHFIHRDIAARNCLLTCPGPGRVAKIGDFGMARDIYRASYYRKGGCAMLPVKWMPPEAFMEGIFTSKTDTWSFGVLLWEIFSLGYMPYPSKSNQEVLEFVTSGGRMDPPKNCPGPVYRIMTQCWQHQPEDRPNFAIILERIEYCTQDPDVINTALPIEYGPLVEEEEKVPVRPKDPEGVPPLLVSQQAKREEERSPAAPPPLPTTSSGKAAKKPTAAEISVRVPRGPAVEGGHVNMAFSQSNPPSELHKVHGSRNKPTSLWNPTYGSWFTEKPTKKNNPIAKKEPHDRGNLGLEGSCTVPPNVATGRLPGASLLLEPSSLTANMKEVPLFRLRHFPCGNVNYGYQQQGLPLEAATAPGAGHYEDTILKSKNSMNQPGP
Description: Briefly, each 96-well plate was coated with 100 μL/well of 10 μg/mL substrate (GST-PLC-γ) in Tris-buffered saline (TBS). […] The reaction was initiated by adding enzyme (30 ng/mL ALK) and was allowed to proceed at 37° C. for 15 minutes. Detection of the phosphorylated product was performed by adding 100 μL/well of Eu-N1 labeled PT66 antibody (Perkin Elmer #AD0041). […] Data analysis was performed using ActivityBase (IDBS, Guilford, UK). IC50 values were calculated by plotting percent inhibition versus log10 of the concentration of compound and fitting to the nonlinear regression sigmoidal dose-response (variable slope) equation in XLFit (IDBS, Guilford, UK).

Chain of baculovirus-expressed JAK2 kinase (O60674 whole entry): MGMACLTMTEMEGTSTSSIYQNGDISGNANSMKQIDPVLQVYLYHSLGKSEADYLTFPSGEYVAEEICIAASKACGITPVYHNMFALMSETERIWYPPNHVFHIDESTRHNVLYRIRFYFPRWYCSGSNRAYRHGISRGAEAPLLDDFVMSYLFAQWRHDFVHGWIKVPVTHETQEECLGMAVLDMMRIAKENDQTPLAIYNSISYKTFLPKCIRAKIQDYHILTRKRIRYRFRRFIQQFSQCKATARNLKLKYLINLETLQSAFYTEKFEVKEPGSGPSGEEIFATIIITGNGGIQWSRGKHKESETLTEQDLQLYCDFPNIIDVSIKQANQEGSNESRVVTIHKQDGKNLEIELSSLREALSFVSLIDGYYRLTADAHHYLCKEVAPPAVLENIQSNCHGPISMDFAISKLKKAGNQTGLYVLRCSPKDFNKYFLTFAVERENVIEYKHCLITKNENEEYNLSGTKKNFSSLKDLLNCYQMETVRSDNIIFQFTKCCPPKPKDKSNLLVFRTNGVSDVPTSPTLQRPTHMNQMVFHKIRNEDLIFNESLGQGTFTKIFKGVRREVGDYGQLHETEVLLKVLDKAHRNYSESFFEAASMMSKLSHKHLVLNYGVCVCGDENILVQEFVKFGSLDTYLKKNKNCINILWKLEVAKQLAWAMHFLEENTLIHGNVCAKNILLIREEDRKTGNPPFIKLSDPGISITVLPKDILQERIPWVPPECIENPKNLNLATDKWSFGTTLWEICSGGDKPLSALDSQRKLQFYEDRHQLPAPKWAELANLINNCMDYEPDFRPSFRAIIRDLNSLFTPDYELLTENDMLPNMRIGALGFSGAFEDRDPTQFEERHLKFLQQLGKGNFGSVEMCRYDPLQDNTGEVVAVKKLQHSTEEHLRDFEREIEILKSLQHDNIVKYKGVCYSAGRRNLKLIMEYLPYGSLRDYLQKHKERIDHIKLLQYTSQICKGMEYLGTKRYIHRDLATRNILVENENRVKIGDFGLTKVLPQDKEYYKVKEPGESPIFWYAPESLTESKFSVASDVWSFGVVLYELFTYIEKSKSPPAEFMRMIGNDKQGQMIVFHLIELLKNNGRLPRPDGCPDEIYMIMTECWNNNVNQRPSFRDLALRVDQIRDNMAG

Row | Compound | IC50 [1] [nM] | IC50 ([1]; 0.2 μM ATP) [nM] | IC50 [2] [nM] | IC50 ([2]; 1 μM ATP (Km level)) [nM]
1 | 4-{2-[7-((1R,2R,3S,4S)-3-Carbamoyl-bicyclo[2.2.1]hept-5-en-2-ylamino)-6-chloro-3H-imidazo[4,5-b]pyridine-2-yl}-5-methoxy-phenyl]-piperidinej-1-carboxylic acid tert-butyl ester [Compound XXIX] | 1000 to 10000 |  |  | 
2 | NC(=O)[C@@H]1[C@H](Nc2c(Cl)cnc3[nH]c(C4CCCNC4)nc23)[C@H]2C=C[C@@H]1C2 (single isomer, unassigned) [XIII] |  | > 10000 | > 10000 | 
3 | NC(=O)[C@@H]1[C@H](Nc2c(Cl)cnc3[nH]c(C4CCCNC4)nc23)[C@H]2C=C[C@@H]1C2 (single isomer, unassigned) [XIV] |  | > 10000 |  | > 10000
4 | COc1cc(N2CCC(N3CCN(C)CC3)CC2)ccc1-c1nc2c(N[C@@H]3CCCC[C@H]3NS(C)(=O)=O)c(Cl)cnc2[nH]1 [CCLIII] |  | 1000 to 10000 | < 100 | 
5 | CN1CCN(Cc2ccc(-c3nc4c(N[C@@H]5CCCC[C@H]5NS(C)(=O)=O)c(Cl)cnc4[nH]3)cc2)CC1 [CCLIV, N-((1R,2R)-2-{6-Chloro-2-[4-(4-methyl-piperazin-1-ylmethyl)-phenyl]-3H-imidazo[4,5-b]pyridin-7-ylamino}-cyclohexyl)-methanesulfonamide] |  | < 100 | < 100 | 
6 | COc1cc(N2CCOCC2)ccc1-c1nc2c(NC34CCC(C)(C(=O)C3)C4(C)C)c(Cl)cnc2[nH]1 (stereo not shown) [Compound CC, 4-(6-chloro-2-(2-methoxy-4-morpholinophenyl)-3H-imidazo[4,5-b]pyridin-7-ylamino)-1,7,7-trimethylbicyclo[2.2.1]heptan-2-one] |  | 100 to 1000 | 100 to 1000 | 
7 | CC12CCC(Nc3c(Cl)cnc4[nH]c(-c5ccc(N6CCOCC6)cc5)nc34)(CC1O)C2(C)C (stereo not shown) [Compound CCI, 4-(6-chloro-2-(4-morpholinophenyl)-3H-imidazo[4,5-b]pyridin-7-ylamino)-1,7,7-trimethylbicyclo[2.2.1]heptan-2-ol] |  | < 100 | > 10000 | 
8 | Cn1cc(-c2nc3c(N[C@@]45CCC(C)(C(O)C4)C5(C)C)c(Cl)cnc3[nH]2)cn1 (stereo partly drawn) [Compound CCII, (4S)-4-(6-chloro-2-(1-methyl-1H-pyrazol-4-yl)-3H-imidazo[4,5-b]pyridin-7-ylamino)-1,7,7-trimethylbicyclo[2.2.1]heptan-2-ol] |  | < 100 | > 10000 | 
9 | COc1cc(N2CCOCC2)ccc1-c1nc2c(NC34CCC(C)(C(O)C3)C4(C)C)c(Cl)cnc2[nH]1 (stereo not shown) [Compound CCIII, 4-(6-chloro-2-(2-methoxy-4-morpholinophenyl)-3H-imidazo[4,5-b]pyridin-7-ylamino)-1,7,7-trimethylbicyclo[2.2.1]heptan-2-ol] |  | 100 to 1000 | 100 to 1000 | 
10 | NC(=O)[C@@H]1[C@H](Nc2c(Cl)cnc3[nH]c(-c4ccc(N5CCOCC5)cc4)nc23)[C@H]2CC[C@@H]1O2 [Compound CCIV, (1S,2R,3S,4R)-3-(6-chloro-2-(4-morpholinophenyl)-3H-imidazo[4,5-b]pyridin-7-ylamino)-7-oxabicyclo[2.2.1]heptane-2-carboxamide] |  | < 100 | 1000 to 10000 | 
11 | COc1ncc(-c2nc3c(N[C@H]4[C@@H](C(N)=O)[C@@H]5C=C[C@H]4C5)c(Cl)cnc3[nH]2)s1 [Compound CCIX, (1S,2S,3R,4R)-3-(6-chloro-2-(2-methoxythiazol-5-yl)-3H-imidazo[4,5-b]pyridin-7-ylamino)bicyclo[2.2.1]hept-5-ene-2-carboxamide] |  | < 100 | 100 to 1000 | 
12 | NC(=O)[C@@H]1[C@H](Nc2c(Cl)cnc3[nH]c(-c4ccc(N5CCOCC5)cc4)nc23)[C@H]2C=C[C@@H]1C2 [Compound IV, (1S,2S,3R,4R)-3-[6-Chloro-2-(4-morpholin-4-yl-phenyl)-3H-imidazo[4,5-b]pyridine-7-ylamino]-bicyclo[2.2.1]hept-5-ene-2-carboxylic acid amide] |  | < 100 |  | 
13 | COc1ccccc1-c1nc2c(N[C@H]3[C@@H](C(N)=O)[C@@H]4C=C[C@H]3C4)c(Cl)cnc2[nH]1 [Compound IX, (1S,2S,3R,4R)-3-[6-Chloro-2-(2-methoxy-phenyl)-3H-imidazo[4,5-b]pyridine-7-ylamino]-bicyclo[2.2.1]hept-5-ene-2-carboxylic acid amide] |  | < 100 |  | 
14 | NC(=O)[C@@H]1[C@H](Nc2c(Cl)cnc3[nH]c(-c4cnn(C5CCNCC5)c4)nc23)[C@H]2C=C[C@@H]1C2 [Compound LVII, (1S,2S,3R,4R)-3-[6-Chloro-2-(1-piperidin-4-yl-1H-pyrazol-4-yl)-3H-imidazo[4,5-b]pyridine-7-ylamino]-bicyclo[2.2.1]hept-5-ene-2-carboxylic acid amide] |  | < 100 |  | 
15 | COc1cccc(-c2nc3c(N[C@H]4[C@@H](C(N)=O)[C@@H]5C=C[C@H]4C5)c(Cl)cnc3[nH]2)c1 [Compound V, (1S,2S,3R,4R)-3-[6-Chloro-2-(3-methoxy-phenyl)-3H-imidazo[4,5-b]pyridin-7-ylamino]-bicyclo[2.2.1]hept-5-ene-2-carboxylic acid amide] |  | < 100 |  | 
16 | COc1ccc(-c2nc3c(N[C@H]4[C@@H](C(N)=O)[C@@H]5C=C[C@H]4C5)c(Cl)cnc3[nH]2)cc1 [Compound VI, (1S,2S,3R,4R)-3-[6-Chloro-2-(4-methoxy-phenyl)-3H-imidazo[4,5-b]pyridine-7-ylamino]-bicyclo[2.2.1]hept-5-ene-2-carboxylic acid amide] |  | < 100 |  | 
17 | NC(=O)[C@@H]1[C@H](Nc2c(Cl)cnc3[nH]c(-c4cccc(N5CCOCC5)c4)nc23)[C@H]2C=C[C@@H]1C2 [Compound VII, (1S,2S,3R,4R)-3-[6-Chloro-2-(3-morpholin-4-yl-phenyl)-3H-imidazo[4,5-b]pyridine-7-ylamino]-bicyclo[2.2.1]hept-5-ene-2-carboxylic acid amide] |  | < 100 |  | 
18 | Cn1cc(-c2nc3c(N[C@H]4[C@@H](C(N)=O)[C@@H]5C=C[C@H]4C5)c(Cl)cnc3[nH]2)cn1 [Compound VIII, (1S,2S,3R,4R)-3-[6-Chloro-2-(1-methyl-1H-pyrazol-4-yl)-3H-imidazo[4,5-b]pyridine-7-ylamino]-bicyclo[2.2.1]hept-5-ene-2-carboxylic acid amide] |  | < 100 |  | 
19 | CN1CCN(c2ccc(-c3nc4c(N[C@H]5[C@@H](C(N)=O)[C@@H]6C=C[C@H]5C6)c(Cl)cnc4[nH]3)cc2)CC1 [Compound X, (1S,2S,3R,4R)-3-{6-Chloro-2-[4-(4-methyl-piperazin-1-yl)-phenyl]-3H-imidazo[4,5-b]pyridine-7-ylamino}-bicyclo[2.2.1]hept-5-ene-2-carboxylic acid amide trifluoroacetic acid salt] |  | < 100 |  | 
20 | COc1cc(N2CCN(C)CC2)ccc1-c1nc2c(N[C@H]3[C@@H](C(N)=O)[C@@H]4C=C[C@H]3C4)c(Cl)cnc2[nH]1 [Compound XXI, (1S,2S,3R,4R)-3-{6-Chloro-2-[2-methoxy-4-(4-methyl-piperazin-1-yl)-phenyl]-3H-imidazo[4,5-b]pyridin-7-ylamino}-bicyclo[2.2.1]hept-5-ene-2-carboxylic acid amide trifluoroacetic acid salt] |  | < 100 |  | 
21 | COc1cc(N2CCC(N3CCN(C)CC3)CC2)ccc1-c1nc2c(N[C@H]3[C@@H](C(N)=O)[C@@H]4C=C[C@H]3C4)c(Cl)cnc2[nH]1 [Compound XXIII, (1S,2S,3R,4R)-3-(6-Chloro-2-{2-methoxy-4-[4-(4-methyl-piperazin-1-yl)-piperidin-1-yl]-phenyl}-3H-imidazo[4,5-b]pyridin-7-ylamino)-bicyclo[2.2.1]hept-5-ene-2-carboxylic acid amide] |  | < 100 |  | 
22 | NC(=O)[C@H]1[C@@H](Nc2c(Cl)cnc3[nH]c(-c4cccc(N5CCOCC5)c4)nc23)[C@@H]2C=C[C@H]1C2 [Compound XXV, (1R,2R,3S,4S)-3-[6-Chloro-2-(3-morpholin-4-yl-phenyl)-3H-imidazo[4,5-b]pyridine-7-ylamino]-bicyclo[2.2.1]hept-5-ene-2-carboxylic acid amide] |  | 100 to 1000 |  | 
23 | CN1CCN(c2ccc(-c3nc4c(N[C@@H]5[C@H](C(N)=O)[C@H]6C=C[C@@H]5C6)c(Cl)cnc4[nH]3)cc2)CC1 [Compound XXVI, (1R,2R,3S,4S)-3-{6-Chloro-2-[4-(4-methyl-piperazin-1-yl)-phenyl]-3H-imidazo[4,5-b]pyridine-7-ylamino}-bicyclo[2.2.1]hept-5-ene-2-carboxylic acid amide] |  | < 100 |  | 
24 | COc1cc(N2CCN(C)CC2)ccc1-c1nc2c(N[C@@H]3[C@H](C(N)=O)[C@H]4C=C[C@@H]3C4)c(Cl)cnc2[nH]1 [Compound XXVIII, (1R,2R,3S,4S)-3-{6-Chloro-2-[2-methoxy-4-(4-methyl-piperazin-1-yl)-phenyl]-3H-imidazo[4,5-b]pyridin-7-ylamino}-bicyclo[2.2.1]hept-5-ene-2-carboxylic acid amide] |  | 100 to 1000 |  | 
